Test results reported in patent US9562022B2 (priority 2009, dated 2017).
Where a name gives a salt, the structure may show the parent alone.

System: P23H opsin
Assay: Rhodopsin purification and regeneration (pigment formation from P23H opsin produced in the presence of compound)
Conditions: P23H opsin treated with 20 μM compound during mutant protein production; relative to pigment formation with vehicle (DMSO) alone

| Compound | regeneration of 500 nm absorbing pigment upon treatment with retinal |
| --- | --- |
| CC1=C(/C=C/C(=O)N2CCOCC2)C(C)(C)CCC1 [Compound 6, (E)-1-Morpholino-3-(2,6,6-trimethylcyclohex-1-enyl)prop-2-en-1-one] | increase |
| C[C@H]1CCCC(C)(C)[C@@H]1CCC(=O)N1CCN(C(N)=O)CC1 [Compound 80, 4-(3-((1R,6S)-2,2,6-trimethylcyclohexyl)propanoyl)piperazine-1-carboxamide] | increase |
| CC1=C(/C=C/C(=O)N2CCN(C(N)=O)CC2)C(C)(C)CCC1 [Compound 33, (E)-4-(3-(2,6,6-Trimethylcyclohex-1-enyl)acryloyl)piperazine-1-carboxamide] | increase |
| CC1=C(/C=C/C(=O)N2CCN(C(N)=S)CC2)C(C)(C)CCC1 [Compound 105, (E)-4-(3-(2,6,6-Trimethylcyclohex-1-en-1-yl)acryloyl)piperazine-1-carbothioamide] | increase |
| [2H]C1([2H])CCC(C)(C)C(/C=C/C(=O)N2CCN(C(N)=O)CC2)=C1C [Compound 63, (E)-4-(3-(3,3-Dideutero-2,6,6-trimethylcyclohex-1-en-1-yl)acryloyl)piperazine-1-carboxamide] | increase |
| CC1=C(CCC(=O)N2CCN(C(N)=O)CC2)C(C)(C)CCC1 [Compound 51, 4-(3-(2,6,6-Trimethylcyclohex-1-enyl)propanoyl)piperazine-1-carboxamide] | increase |
| C[C@H]1CCCC(C)(C)[C@@H]1/C=C/C(=O)N1CCN(C(N)=O)CC1 [Compound 73, (+)-4-((E)-3-((1S,6S)-2,2,6-trimethylcyclohexyl)acryloyl)piperazine-1-carboxamide] | increase |
| CC1=C(/C=C/C(=O)N2CCCN(C(N)=O)CC2)C(C)(C)CCC1 [Compound 13, (E)-4-(3-(2,6,6-Trimethylcyclohex-1-enyl)acryloyl)-1,4-diazepane-1-carboxamide] | increase |
| C#CC1CN(C(=O)/C=C/C2=C(C)CCCC2(C)C)CCN1C(N)=O (centres unmarked) [Compound 106, (E)-2-Ethynyl-4-(3-(2,6,6-trimethylcyclohex-1-en-1-yl)acryloyl)piperazine-1-carboxamide] | increase |
| CC1=C(/C=C/C(=O)N2CC[C@@H](OC(N)=O)C2)C(C)(C)CCC1 [Compound 57, (R,E)-1-(3-(2,6,6-Trimethylcyclohex-1-en-1-yl)acryloyl)pyrrolidin-3-yl carbamate] | increase |
| CC1=C(/C=C/C(=O)N2CCC(NC(N)=O)C2)C(C)(C)CCC1 (centres unmarked) [Compound 50, (E)-1-(1-(3-(2,6,6-Trimethylcyclohex-1-enyl)acryloyl)pyrrolidin-3-yl)urea] | increase |
| CC1=C(/C=C/C(=O)N2CCN(C(N)=O)[C@H](C)C2)C(C)(C)CCC1 [Compound 53, (R,E)-2-Methyl-4-(3-(2,6,6-trimethylcyclohex-1-enyl)acryloyl)piperazine-1-carboxamide] | increase |
| CC1CCCC(C)(C)C1/C=C/C(=O)N1CCN(C(N)=O)CC1 (racemic) [Compound 71, (±)-4-((E)-3-((1,6-anti)-2,2,6-trimethylcyclohexyl)acryloyl)piperazine-1-carboxamide] | increase |
| CC1=C(CNC(=O)N2CCN(C(N)=O)CC2)C(C)(C)CCC1 [Compound 55, N^1-((2,6,6-Trimethylcyclohex-1-en-1-yl)methyl)piperazine-1,4-dicarboxamide] | increase |
| CC1=C(/C=C/C(=O)N2CCN(C(=O)NC(C)C)CC2)C(C)(C)CCC1 [Compound 37, (E)-N-Isopropyl-4-(3-(2,6,6-trimethylcyclohex-1-enyl)acryloyl)piperazine-1-carboxamide] | increase |
| CC1=C(/C=C/C(=O)N2CCN(C(N)=O)[C@@H](C)C2)C(C)(C)CCC1 [Compound 52, (S,E)-2-Methyl-4-(3-(2,6,6-trimethylcyclohex-1-enyl)acryloyl)piperazine-1-carboxamide] | increase |

System: not given
Assay: not given
Conditions: not given

| melting point | Compound |
| --- | --- |
| 181 to 183 °C | CC1=C(/C=C/C(=O)N2CCN(S(N)(=O)=O)CC2)C(C)(C)CCC1 (as salt: hydrochloride) |
